# From patent US20210356472A1, “METHODS AND COMPOSITIONS FOR DETECTION AND VISUALIZATION OF OXIDATIVE STRESS-INDUCED CARBONYLATION IN CELLS” (The Research Foundation for The State University of New York, priority 2020, published 2021)
# Assays:
# A549 cells = assay: Detection of carbonylation in live cells with hydrazide fluorophores; assay type: cell-based
# Description: At the end of the incubation period with the OSA or vehicle, 1 μL of 2 mM fluorophore (final concentrations: fluorophore=10 μM; DMSO=0.5%, v/v) is added to one corner of each well, taking care not to touch the bottom of the well with the pipet tip, and mixed well, by gently moving the chambered coverglass in a circular motion (clockwise as well as counter-clockwise). The coverglass is then returned to the cell culture incubator and incubated for 30-45 min. The difference in fluorescence between the control and the sample may be affected by the time of incubation with the fluorophore and the cell line. The incubation time is adjusted based on the cell line and oxidant used. The medium is discarded and 500 μL fresh medium added to each well. The coverglass is returned to the cell culture incubator for 3 min. The washing step is repeated two more times. The final wash medium is discarded, and 200 μL of fresh medium added, and the cells imaged by, e.g., confocal microscopy.
# A549 cells were treated with vehicle (0.1% DMSO, v/v) or 100 μM menadione for 1 h, followed by 10 μM DCCH, BODIPYH, TxRH or TFCH for 30 min. The medium was discarded, and fresh medium was added to the cells and allowed to incubate for 5 min. After an additional round of medium change, the cells were imaged live using a confocal laser scanning microscope.
# FIGS. 9A-9C show quantitative analysis of carbonyls in live cells in high throughput platform: A549 cells grown in standard media (control) or serum free media (serum starved) for ˜24 h were allowed to react with 10 μM hydrazide fluorophores for 1 h. Cells were washed and the emission of respective samples were recorded. The excitation (ex) and emission (em) wavelengths used are as follows: (FIG. 9A) DCCH (ex: 405 nm; em: 475 nm); (FIG. 9B) BODIPYH (ex: 488 nm; em: 530 nm); (FIG. 9C) TxRH (ex: 543 nm; em: 620 nm). Fluorescence in each sample was normalized to cell density. The graphs represent fluorescence of the serum starved samples relative to the control samples.
# The cells were washed and imaged live using a confocal microscope. […]
# [1] = Absorption and emission spectra of hydrazide fluorophores and their hydrazones with propanal; assay type: physicochemical; settings: 10 mM PB, pH 7 containing 0.5% DMSO (v/v); for Hydrazide + propanal Abs max / Hydrazide + propanal Em max: corresponding hydrazone with propanal
# Description: FIGS. 15A-15F show absorption (top) and emission (bottom) spectra of (FIGS. 15A, 15B) DCCH, (FIGS. 15C, 15D) BODIPYH, and (FIGS. 15E, 15F) TxRH and their corresponding hydrazones with propanal in 10 mM PB, pH 7 containing 0.5% DMSO (v/v). The excitation wavelengths used for obtaining the emission spectra are as follows: DCCH (ex: 405 nm), BODIPYH (ex: 450 nm), TxRH (543 nm). The arrow in the absorption spectra denotes the wavelength of the excitation laser used in the microscopy experiments.
# [2] = Photochemical comparison of TFCH with BzCH; assay type: physicochemical
# oxidized BSA = oxidized BSA (Bos taurus, UniProt P02769); assay: Fluorescent labelling of oxidized BSA (SDS-PAGE); assay type: biochemical; settings: isolated system, oxidized BSA as model carbonylated biomolecule
# Chain of oxidized BSA (P02769 25-607): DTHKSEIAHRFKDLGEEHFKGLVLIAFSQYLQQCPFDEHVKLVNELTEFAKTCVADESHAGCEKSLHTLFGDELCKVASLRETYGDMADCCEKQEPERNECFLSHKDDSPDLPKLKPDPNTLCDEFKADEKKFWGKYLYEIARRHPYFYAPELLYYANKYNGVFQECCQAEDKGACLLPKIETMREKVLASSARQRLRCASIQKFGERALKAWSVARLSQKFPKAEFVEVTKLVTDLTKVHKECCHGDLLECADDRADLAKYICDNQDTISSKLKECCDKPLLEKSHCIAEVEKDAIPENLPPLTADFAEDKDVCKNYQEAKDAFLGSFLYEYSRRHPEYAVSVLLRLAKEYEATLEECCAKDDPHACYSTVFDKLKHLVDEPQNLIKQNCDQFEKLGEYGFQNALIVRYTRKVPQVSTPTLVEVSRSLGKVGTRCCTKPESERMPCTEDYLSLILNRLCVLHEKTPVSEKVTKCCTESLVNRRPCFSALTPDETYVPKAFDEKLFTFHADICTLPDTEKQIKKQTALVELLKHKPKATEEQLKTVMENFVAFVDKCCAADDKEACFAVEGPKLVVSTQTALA
# Description: (§1) Oxidized BSA was used as a model carbonylated biomolecule and TFCH's ability to detect it in an isolated system was tested. […] Next, the compatibility of TFCH for cell-based assays was established using lung cancer (A549) cells as a model cell line. TFCH's influx and efflux were achieved readily (<5 min) (FIGS. 21D and 21E). […] Importantly, given the turn-up property of the fluorophore, it was possible to identify carbonyls in live cells in the presence of unreacted fluorophores by a one-step high content screening (HCS)-compatible assay. Low concentration of the dye (2 µM) can detect carbonyls induced by serum starvation in live cells within 30 min (FIG. 22C). This single-step (no wash) assay format may be particularly suitable for screening molecules that have a propensity to induce cell detachment. Alternatively, excess fluorophore can be removed and the cells can be either imaged live (FIGS. 21D and 21E) or can be fixed and preserved for analysis at a later time Indeed, a similar spatial distribution and increase in carbonylation due to serum starvation was detected in both live (FIGS. 5, 19B) and fixed cells (fixed after fluorescent labeling in live cells). […] See also, (Vemula, Ni, & Fedorova, 2015).
# (§2) FIGS. 21A-21B, Limit of detection (LOD) of TFCZ (hydrazone of TFCH and propanal) in A549 cell lysate. […] Emission spectra of the lysates were recorded by exciting the samples at 372 nm.
# [3] = Reaction of TFCH with biomolecule ketones, cell-free systems versus living cells
# Text: It is believed that, in vivo, small molecules such as amino acids are involved in catalysis of the reaction.
# [4] = Fluorescence quantum yield; assay type: physicochemical; settings: in water; 'believed to have'
# Text: The fluorescence “quantum yield” (φ) is the ratio of the number of photons emitted to the number absorbed. The term fluorescence quantum yield (φ) is a measure of the efficiency of photon emission through fluorescence, which is the loss of energy by a substance that has absorbed light via emission of a photon. In other words, the fluorescence quantum yield gives the probability of the excited state being deactivated by fluorescence rather than by another, non-radiative mechanism such as internal conversion or vibrational relaxation (non-radiative loss of energy as heat to the surroundings). The fluorescence intensity (F) is proportional to the amount of light absorbed, F=φ(Io-I), where lo is the intensity of the incident light and l is the intensity transmitted. […] When the concentration of the fluorescent compound is low, the fluorescence intensity is given by the equation: […].
# TFCH is believed to have a quantum yield of >0.1 in water. […] “Solvent effect on absolute fluorescence quantum yield of rhodamine 6G determined using transient thermal lens technique.” Modern physics letters B 13, no. […] “Fluorescence lifetime of acridine in water-organic solvent mixtures.” Bulletin of the Chemical Society of Japan 42, no. […]
# lung cancer (A549) cells = assay: Cellular influx and efflux of TFCH in live A549 cells; assay type: cell-based
# Description: as §1, §2
Structure (SMILES),suitability as optical probe for carbonylation in live cells (A549 cells),Hydrazide + propanal Abs max [1] [nm],Hydrazide + propanal Em max [1] [nm],Hydrazide Abs max [1] [nm],Hydrazide Em max [1] [nm],photostability compared with BzCH [2],absorption at 405 nm compared with BzCH ([2]; 405 nm),labelling of oxidized BSA (oxidized BSA),reaction with biomolecule ketones in cell-free systems relative to living cells [3],quantum yield [4],influx and efflux time (lung cancer (A549) cells) [min]
"CCN(CC)c1ccc2cc(C(=O)NN)c(=O)oc2c1 [DCCH, 7-(diethylamino)coumarin-3-carbohydrazide]",found suitable as optical probes for carbonylation in live cells,439,481,429,479,,,,,,
NNS(=O)(=O)c1ccc(C2=c3cc4c5c(c3Oc3c2cc2c6c3CCCN6CCC2)CCC[N+]=5CCC4)c(S(=O)(=O)[O-])c1 [TxRH],found suitable as optical probes for carbonylation in live cells,589,607,589,607,,,,,,
"NNc1ccc2c(C(F)(F)F)cc(=O)oc2c1 [TFCH, 4-Trifluoromethyl-7-hydrazinyl-2H-chromen-2-one]",,,,,,more photostable than BzCH,higher absorption at 405 nm than the BzCH,able to fluorescently label oxidized BSA and form a stable conjugate,eight hundred times slower,> 0.1,< 5
Cc1cc(C)n2c1C=C1C=CC(CCC(=O)NN)=[N+]1[B-]2(F)F [BODIPYH],found suitable as optical probes for carbonylation in live cells,503,510,503,510,,,,,,
